Activity calls are given as the source filed them. No cut-off for these calls is given here.
Legend:
H9c2 [1] = experiment: Cardioprotective activity against CoCl2-induced cellular hypoxia injury in rat H9c2 cells assessed as cell viability at 0.625 uM incubated for 24 hrs by CCK-8 assay (reference value: 51.80 +/- 2.58 %); assay type: functional; conditions: read-out: Activity
H9c2 [2] = experiment: Cardioprotective activity against CoCl2-induced cellular hypoxia injury in rat H9c2 cells assessed as cell viability at 1.25 uM incubated for 24 hrs by CCK-8 assay (reference value: 51.80 +/- 2.58 %); assay type: functional; conditions: read-out: Activity
H9c2 [3] = experiment: Cardioprotective activity against CoCl2-induced cellular hypoxia injury in rat H9c2 cells assessed as cell viability at 10 uM incubated for 24 hrs by CCK-8 assay (reference value: 51.80 +/- 2.58 %); assay type: functional; conditions: read-out: Activity
H9c2 [4] = experiment: Cardioprotective activity against CoCl2-induced cellular hypoxia injury in rat H9c2 cells assessed as increase in cell viability at 30 uM incubated for 24 hrs by CCK-8 assay; assay type: functional, cell-based
H9c2 [5] = experiment: Cardioprotective activity against CoCl2-induced cellular hypoxia injury in rat H9c2 cells assessed as cell viability at 5 uM incubated for 24 hrs by CCK-8 assay (reference value: 51.80 +/- 2.58 %); assay type: functional; conditions: read-out: Activity
H9c2 [6] = experiment: Cardioprotective activity against CoCl2-induced cellular hypoxia injury in rat H9c2 cells assessed as cell viability at 2.5 uM incubated for 24 hrs by CCK-8 assay (reference value: 51.80 +/- 2.58 %); assay type: functional; conditions: read-out: Activity

Compound	viability at 0.625 µM (H9c2 [1]) [%]	viability at 1.25 µM (H9c2 [2]) [%]	viability at 10 µM (H9c2 [3]) [%]	Activity (H9c2 [4])	viability at 5 µM (H9c2 [5]) [%]	viability at 2.5 µM (H9c2 [6]) [%]
CC(C)(O)[C@H]1CC[C@@](C)([C@H]2CC[C@]3(C)[C@@H]2[C@H](O)C[C@@H]2[C@@]4(C)CC[C@H](OC(=O)CCC(=O)Oc5ccc(-c6cc(=S)ss6)cc5)C(C)(C)[C@@H]4[C@@H](O)C[C@]23C)O1	67.3	66.2	68.3	inactive	68.1	68.4
CC(C)(O)[C@H]1CC[C@@](C)([C@H]2CC[C@]3(C)[C@@H]2[C@H](O)C[C@@H]2[C@@]4(C)CC[C@H](OC(=O)CCC(=O)Oc5ccc(-c6nc(=O)ss6)cc5)C(C)(C)[C@@H]4[C@@H](O)C[C@]23C)O1	65.7	72.5	81.5	inactive	77.3	76
CC(C)(O)[C@@H]1CC[C@@](C)([C@H]2CC[C@]3(C)[C@@H]2[C@H](O)C[C@@H]2[C@@]4(C)CC[C@H](OC(=O)CCC(=O)Oc5ccc(-c6cc(=S)ss6)cc5)C(C)(C)[C@@H]4CC[C@]23C)O1	68.4	71.4	82.2	inactive	80	79.6
C=CCSSCCC(=O)O[C@H]1CC[C@]2(C)[C@H]3C[C@@H](O)[C@@H]4[C@@H]([C@@](C)(O)CCC=C(C)C)CC[C@@]4(C)[C@]3(C)C[C@H](O)[C@H]2C1(C)C	49	58.4	65.7	inactive	63.1	64.4
CC(C)(O)[C@@H]1CC[C@@](C)([C@H]2CC[C@]3(C)[C@@H]2[C@H](O)C[C@@H]2[C@@]4(C)CC[C@H](OC(=O)c5ccc(N=C=S)cc5)C(C)(C)[C@@H]4[C@@H](O)C[C@]23C)O1	56.9	55.5	63.1	inactive	61.4	58.8
CC(C)(O)[C@@H]1CC[C@@](C)([C@H]2CC[C@]3(C)[C@@H]2[C@H](O)C[C@@H]2[C@@]4(C)CC[C@H](OC(=O)CCC(=O)Oc5ccc(-c6cc(=S)ss6)cc5)C(C)(C)[C@@H]4[C@@H](O)C[C@]23C)O1	68.4	73.6	75.2	inactive	77.2	76.9
CC(C)(O)[C@H]1CC[C@@](C)([C@H]2CC[C@]3(C)[C@@H]2[C@H](O)C[C@@H]2[C@@]4(C)CC[C@H](O)C(C)(C)[C@@H]4[C@@H](O)C[C@]23C)O1	56.5	55.6	61.5	inactive	55.6	57
CC(C)(O)[C@H]1CC[C@@](C)([C@H]2CC[C@]3(C)[C@@H]2[C@H](O)C[C@@H]2[C@@]4(C)CC[C@H](OC(=O)c5ccc(N=C=S)cc5)C(C)(C)[C@@H]4CC[C@]23C)O1	59.9	61.6	72.9	inactive	68.3	67.3
O=C(O)CCC(=O)Oc1ccc(-c2cc(=S)ss2)cc1	66.4	67.4	80.3	inactive	77.6	74.3
O=C(Nc1ccccc1-c1cn2c(CN3CCNCC3)csc2n1)c1cnc2ccccc2n1	71.7	73.3	88.4		83.3	80.6
CC(C)=CCC[C@](C)(O)[C@H]1CC[C@]2(C)[C@@H]1[C@H](O)C[C@@H]1[C@@]3(C)CC[C@H](OC(=O)c4ccc(N=C=S)cc4)C(C)(C)[C@@H]3CC[C@]12C	54.7	61	61.5	inactive	67.5	60.7
CC(C)(O)[C@H]1CC[C@@](C)([C@H]2CC[C@]3(C)[C@@H]2[C@H](O)C[C@@H]2[C@@]4(C)CC[C@H](OC(=O)c5ccc(N=C=S)cc5)C(C)(C)[C@@H]4[C@@H](O)C[C@]23C)O1	52.5	59.6	58.5	inactive	58.6	57.1
CC(C)=CCC[C@](C)(O)[C@H]1CC[C@]2(C)[C@@H]1[C@H](O)C[C@@H]1[C@@]3(C)CC[C@H](O)C(C)(C)[C@@H]3CC[C@]12C	52.5	63	68.8	inactive	67.5	67.5
CC(C)(O)[C@@H]1CC[C@@](C)([C@H]2CC[C@]3(C)[C@@H]2[C@H](O)C[C@@H]2[C@@]4(C)CC[C@H](O)C(C)(C)[C@@H]4[C@@H](O)C[C@]23C)O1 [PROTOPANAXATRIOL OXIDE II]	52	54	73.4	inactive	69.6	56.7
O=C(O)CCC(=O)Oc1ccc(-c2nc(=O)ss2)cc1	52.4	55.1	57.2	inactive	57	55.9
C=CCSSCCC(=O)O	51.7	57.5	80.3	inactive	71	68.4
C=CCSSCCC(=O)O[C@H]1CC[C@]2(C)[C@H]3C[C@@H](O)[C@@H]4[C@@H]([C@]5(C)CC[C@H](C(C)(C)O)O5)CC[C@@]4(C)[C@]3(C)CC[C@H]2C1(C)C	65.7	72.3	74.2	inactive	76.9	73.6
CC(C)=CCC[C@](C)(O)[C@H]1CC[C@]2(C)[C@@H]1[C@H](O)C[C@@H]1[C@@]3(C)CC[C@H](OC(=O)c4ccc(N=C=S)cc4)C(C)(C)[C@@H]3[C@@H](O)C[C@]12C	50.9	55.2	54.8	inactive	56.6	54
CC(C)(O)[C@H]1CC[C@@](C)([C@H]2CC[C@]3(C)[C@@H]2[C@H](O)C[C@@H]2[C@@]4(C)CC[C@H](O)C(C)(C)[C@@H]4CC[C@]23C)O1	68.7	66.4	75.5	inactive	66.9	65.4
C=CCSSCCC(=O)O[C@H]1CC[C@]2(C)[C@H]3C[C@@H](O)[C@@H]4[C@@H]([C@@](C)(O)CCC=C(C)C)CC[C@@]4(C)[C@]3(C)CC[C@H]2C1(C)C	46	50.8	62.7	inactive	60.6	42.5
O=C(O)c1ccc(N=C=S)cc1	51.1	53.7	63.5	inactive	59.5	59.3
CC(C)(O)[C@H]1CC[C@@](C)([C@H]2CC[C@]3(C)[C@@H]2[C@H](O)C[C@@H]2[C@@]4(C)CC[C@H](OC(=O)CCC(=O)Oc5ccc(-c6cc(=S)ss6)cc5)C(C)(C)[C@@H]4CC[C@]23C)O1	65.1	66.8	72.5	inactive	69.5	67.5
CC(C)=CCC[C@](C)(O)[C@H]1CC[C@]2(C)[C@@H]1[C@H](O)C[C@@H]1[C@@]3(C)CC[C@H](O)C(C)(C)[C@@H]3[C@@H](O)C[C@]12C	66	66.8	71.6	inactive	71.4	67.3
C=CCSSCCC(=O)O[C@H]1CC[C@]2(C)[C@H]3C[C@@H](O)[C@@H]4[C@@H]([C@]5(C)CC[C@H](C(C)(C)O)O5)CC[C@@]4(C)[C@]3(C)C[C@H](O)[C@H]2C1(C)C	68.1	64.5	69.7	inactive	66.5	62.9
CC(C)(O)[C@@H]1CC[C@@](C)([C@H]2CC[C@]3(C)[C@@H]2[C@H](O)C[C@@H]2[C@@]4(C)CC[C@H](OC(=O)c5ccc(N=C=S)cc5)C(C)(C)[C@@H]4CC[C@]23C)O1	62.2	62.2	77.1	inactive	70	67.1

From ChEMBL document CHEMBL6120941, “Discovery of SIRT1-Activating Hydrogen Sulfide Donating Derivatives for Efficient Resistant of Myocardial Ischemic Injury” (J Med Chem, 2024)
